Literature values as cited in patent publication US7666392B2, “Click chemistry-derived cyclopeptide derivatives as imaging agents for integrins” (Siemens Medical Solutions USA, Inc., priority 2006, dated 2010).

c(RGDyV)
tumor uptake in vivo (125I-labeled): receptor-specific tumor uptake in vivo
tumor washout and excretion (in vivo): rapid tumor washout and unfavorable hepatobiliary excretion
